Reference: publication PMC13267291, “In vivo functional profiling and structural characterization of the human GLP1R A316T variant” (Science Advances, 2026)

Tests used:
[1] = tested on: INS-1 832/3 Glp1r^−/− SNAP/FLAG-hGLP1R^A316T cells; test: Lysosomal inhibition assay, surface GLP-1R in INS-1 832/3 cells; type: cell-based, rat; details: 400 nM, 2 hours; comparable to WT; n = 5; Fig. 7D
Description: (§1) INS-1 832/3 Glp1r^−/− SNAP/FLAG-hGLP1R^WT or ^A316T cells on coverslips, mouse hGLP1R^−/− islets transduced with pAV-SNAP/FLAG-hGLP1R^WT or ^A316T adenoviruses, or hGLP1R^A316T/A316T and ^+/+ control islets were incubated for 2 hours ± 400 nM bafilomycin-A1 (Sigma-Aldrich), an established vacuolar H^+-ATPase and lysosomal trafficking inhibitor ([98]), in complete medium. Cells and transduced hGLP1R^−/− islets were then labeled with 1 μM SNAP-Surface 549, and hGLP1R^A316T/A316T versus ^+/+ islets were treated with exendin-9–TMR in complete medium at 37°C for 10 min. Cells were washed and fixed in 4% PFA, mounted in Prolong Diamond antifade reagent with DAPI, while islets were loaded onto glass-bottom MatTek dishes in PBS, and images were acquired by confocal microscopy with a Zeiss LSM-780 inverted confocal laser scanning microscope and a 63×/1.4 numerical aperture oil immersion objective from the Imperial College FILM Facility. Images were analyzed using Fiji.

[2] = tested on: hGLP1R^−/− mouse islets transduced with SNAP/FLAG-hGLP1R^WT versus ^A316T; islets from hGLP1R^+/+ versus ^A316T/A316T mice; test: Lysosomal inhibition assay, surface GLP-1R in mouse islets; type: cell-based; details: 400 nM, 2 hours; n = 3 and n = 4; Fig. 7E,F
Description: as §1

[3] = tested on: human GLP-1R A316T versus WT; test: Insulin secretion assay in mouse islets; type: cell-based; details: HFHS-fed mouse islets; 11 mM glucose + 100 nM; fig. S6I
Description: Purified mouse islets used for insulin secretion assays were treated in 24-well nonadherent plates. Eight islets were used per replicate with three technical replicates per condition. For acute studies, islets were preincubated for 1 hour in KRBH buffer containing 0.1% (w/v) bovine serum albumin (BSA) (10775835001, Roche) and 3 mM glucose before incubation with 11 mM glucose ± 100 nM GLP-1RAs or the GLP-1R antagonist exendin-9 in KRBH buffer in a shaking 37°C water bath (80 rpm) for 1 hour. For overnight studies, preincubation was carried out in RPMI 1640 medium containing FBS, P/S, and 3 mM glucose, followed by treatment with medium supplemented with 11 mM glucose ± GLP-1RAs for 16 hours. Supernatants containing secreted insulin were collected, centrifuged at 1000 rpm for 1 min, and transferred to fresh tubes. For total insulin content, islets were lysed using acidic ethanol (75% ethanol, 1.5 mM HCl). Lysates were sonicated 3× 10 s each in a water bath and centrifuged at 10,000g for 10 min, and supernatants were collected. For human islets, the same experiment was performed with islets previously transduced with pAV-SNAP/FLAG-hGLP1R^WT or ^A316T adenoviruses (generated by VectorBuilder) at a multiplicity of infection of 1, 24 hours before the start of experiments. Insulin secretion assays with the human EndoC-βH3 cell line were performed following 3 weeks of treatment with 4-hydroxytamoxifen as above, followed by transduction with pAV-SNAP/FLAG-hGLP1R^WT or ^A316T adenoviruses, with insulin secretion assessed as previously described ([54]), with the following modifications: After preincubation with 0.5 mM glucose KRBH buffer, cells were stimulated with 15 mM glucose ± exendin-4 for 60 min. Total and secreted insulin samples from islets and cells were stored at −20°C until quantification using an Insulin Ultra-Sensitive HTRF kit (#62IN2PEG, Revvity) in a PHERAstar plate reader (BMG Labtech), according to the manufacturer’s instructions.

| Compound | Surface expression levels of GLP-1R A316T after lysosomal inhibition [1] | Surface GLP-1R A316T after lysosomal inhibition in islets [2] | Basal insulin secretion of A316T islets on exposure to antagonist/inverse agonist [3] |
| --- | --- | --- | --- |
| CO/C1=C\C(C)=C\[C@@H](C)[C@@H](O)[C@@H](C)C/C(C)=C/C=C/[C@H](OC)[C@@H]([C@@H](C)[C@@H](O)[C@H](C)[C@@]2(O)C[C@@H](O)[C@H](C)[C@@H](C(C)C)O2)OC1=O [bafilomycin A1] | complete recovery of surface expression levels | same effect |  |
| exendin-9 |  |  | significantly reduced |
